Experiment [1] deals with Poria placenta. Description: Agar hyphae growth test, minimum inhibitory concentration (MIC) and Kull synergism. The following applies: malt extract/peptone nutrient agar, 26° C., radial hyphae growth suppressed completely; read-out: MIC against Poria placenta. In kind it is cell-based. On the procedure: (§1) The synergism was determined by the method described by Kull et al. (F. C. Kull, P. C. Eismann, H. D. Sylvestrowicz, R. L. Mayer, Applied Microbiology 1961, 9, 538-541). Here, the following relations apply:
[formula] X=1 means additivity X>1 means antagonism X<1 means synergism Qa=concentration of substance A which is the MIC Qb=concentration of substance B which is the MIC QA=concentration of substance A in the concentration of A/B which suppresses the microbial growth QB=concentration of substance B in the concentration of A/B which suppresses the microbial growth Results:
Mycelium pieces were punched out of a colony of the wood-destroying fungus Poria placenta and incubated at 26° C. on a malt extract/peptone-containing nutrient agar. The hyphae growth with and without added active compound and/or additive was compared. The minimum inhibitory concentration (MIC) stated is the concentration at which the radial hyphae growth is suppressed completely.

The subject of experiment [2] is Gloeophyllum trabeum. The description is as above. Format: cell-based. The following applies: 168 h, malt extract/peptone nutrient agar, 26° C., radial hyphae growth suppressed completely, about 1 week, read-out: MIC against Gloeophyllum trabeum. On the procedure: Mycelium pieces were punched out of a colony of the wood-destroying fungus Gloeophyllum trabeum and incubated at 26° C. on a malt extract/peptone-containing nutrient agar. The hyphae growth with and without added active compound and/or amidoalkylamine was compared. The minimum inhibitory concentration (MIC) stated is the concentration at which the radial hyphae growth is suppressed completely (incubation time: about 1 week depending on the fungal growth of the comparative sample without active compound).
as §1
[formula] X=1 means additivity X>1 means antagonism X<1 means synergism Qa=concentration of substance A which is the MIC Qb=concentration of substance B which is the MIC QA=concentration of substance A in the concentration of A/B which suppresses the microbial growth QB=concentration of substance B in the concentration of A/B which suppresses the microbial growth Results: […]

SMILES strings stand for the structures.

Results on 3 molecules are retold here after patent US8002883B2, “Amidoalkylamine-comprising azole compositions for protecting industrial materials” (LANXESS Deutschland GmbH, priority 2009, dated 2011).

`CCCC1COC(Cn2cncn2)(c2ccc(Cl)cc2Cl)O1` (stereo not drawn) [propiconazole]: the MIC in experiment [1] was found to be 0.5 µg/mL.
In the case of `CC(C)(C)C(O)(CCc1ccc(Cl)cc1)Cn1cncn1` (stereo not drawn) [tebuconazole], the MIC in experiment [2] came out at 0.5 µg/mL.
For `CC(C)(C)C(=O)C(Oc1ccc(Cl)cc1)n1cncn1` (stereo not drawn) [triadimefon], in experiment [1], the MIC came to 3 µg/mL.

For orientation: MIC means the lowest concentration found to suppress growth.
